# Assay results as given in ChEMBL document CHEMBL1201862, “PubChem BioAssay data set” (2004).
#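 Following 48 hours of exposure in 96-well plates, responses at five concentrations were used to interpolate endpoints linearly. GI50: concentration for 50% inhibition of growth.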 The source made the active and inactive calls. Cut-off read from the data, not from the text of the source: active = GI50 up to about 1.1 µM and inactive = higher.
# What was measured:
# Experiment in all cases: inhibition of tumour cell growth, NCI panel, 48 h
# M14 = system: M14
# U-251 = system: U-251
# UO-31 = system: UO-31
# T47D = system: T47D
# KM12 = system: KM12
# HOP-92 = system: HOP-92
# SW-620 = system: SW-620
# SN12C = system: SN12C
# SF-268 = system: SF-268
# A498 = system: A498
# MDA-N = system: MDA-N
# MCF7 = system: MCF7
# CCRF-CEM = system: CCRF-CEM
# SK-MEL-5 = system: SK-MEL-5
# Malme-3M = system: Malme-3M
# HT-29 = system: HT-29
# A549 = system: A549
# ACHN = system: ACHN
# NCI-H522 = system: NCI-H522
# NCI-H23 = system: NCI-H23
SMILES,GI50 (M14),GI50 (U-251),GI50 (UO-31),GI50 (T47D),GI50 (KM12),GI50 (HOP-92),GI50 (SW-620),GI50 (SN12C),GI50 (SF-268),GI50 (A498),GI50 (MDA-N),GI50 (MCF7),GI50 (CCRF-CEM),GI50 (SK-MEL-5),GI50 (Malme-3M),GI50 (HT-29),GI50 (A549),GI50 (ACHN),GI50 (NCI-H522),GI50 (NCI-H23)
CN(C)C(=S)/N=c1\ssc(=S)n1Cc1cccs1,3.01 µM (inactive),3.76 µM (inactive),6.28 µM (inactive),8.51 µM (inactive),3.39 µM (inactive),5.26 µM (inactive),2.07 µM (inactive),6.9 µM (inactive),5.45 µM (inactive),4.13 µM (inactive),0.604 µM (active),1.99 µM (inactive),6.46 µM (inactive),1.04 µM (active),2.4 µM (inactive),2.62 µM (inactive),5.27 µM (inactive),9.35 µM (inactive),0.39 µM (active),3.75 µM (inactive)
COc1ccc2c(c1)CC[C@@H]1C2CC[C@]2(C)C(=O)N(C)C(=O)CC12 (stereo not given in full),> 100 µM (inactive),75.9 µM (inactive),> 100 µM (inactive),> 100 µM (inactive),> 100 µM (inactive),> 100 µM (inactive),> 100 µM (inactive),> 100 µM (inactive),> 100 µM (inactive),> 100 µM (inactive),> 100 µM (inactive),> 100 µM (inactive),> 100 µM (inactive),> 100 µM (inactive),> 100 µM (inactive),> 100 µM (inactive),> 100 µM (inactive),> 100 µM (inactive),> 100 µM (inactive),> 100 µM (inactive)
Cn1c2ccccc2c2c3c(=O)[nH][nH]c(=O)c3c3c4ccccc4n(C)c3c21,> 84.5 µM (inactive),> 100 µM (inactive),> 100 µM (inactive),0.284 µM (active),30.1 µM (inactive),> 100 µM (inactive),> 100 µM (inactive),> 100 µM (inactive),> 100 µM (inactive),> 100 µM (inactive),> 100 µM (inactive),0.133 µM (active),0.655 µM (active),> 100 µM (inactive),> 100 µM (inactive),> 100 µM (inactive),> 100 µM (inactive),> 100 µM (inactive),1.09 µM (active),12.5 µM (inactive)
C[C@]12CC[C@H](O)CC1=CC[C@@H]1C2CC[C@]2(C)c3n[nH]nc3CC12 (stereo not given in full),> 100 µM (inactive),> 100 µM (inactive),> 100 µM (inactive),> 100 µM (inactive),> 100 µM (inactive),> 100 µM (inactive),> 100 µM (inactive),> 100 µM (inactive),> 100 µM (inactive),> 100 µM (inactive),36.3 µM (inactive),> 100 µM (inactive),> 100 µM (inactive),> 100 µM (inactive),> 100 µM (inactive),> 100 µM (inactive),> 100 µM (inactive),> 100 µM (inactive),> 100 µM (inactive),> 100 µM (inactive)
COc1ccc(/C(=N/N=c2\[nH]c3ccccc3n2Cc2ccccc2)C(=O)O)cc1,14.5 µM (inactive),11.1 µM (inactive),25.8 µM (inactive),14.7 µM (inactive),17.5 µM (inactive),11.7 µM (inactive),27 µM (inactive),5.96 µM (inactive),7.5 µM (inactive),13.1 µM (inactive),32 µM (inactive),13.2 µM (inactive),3.97 µM (inactive),15.5 µM (inactive),17.6 µM (inactive),22 µM (inactive),23 µM (inactive),22.6 µM (inactive),8.65 µM (inactive),14.1 µM (inactive)
Cc1cnc2c(c1)C(=O)C1=C(C2=O)C2OC(=O)CC2OC1(C)C (stereo not given),0.254 µM (active),0.109 µM (active),0.458 µM (active),0.304 µM (active),0.431 µM (active),0.121 µM (active),0.0782 µM (active),0.161 µM (active),0.223 µM (active),1.83 µM (inactive),0.281 µM (active),0.0533 µM (active),0.0239 µM (active),0.317 µM (active),0.0736 µM (active),0.0588 µM (active),1.53 µM (inactive),0.107 µM (active),0.0525 µM (active),0.321 µM (active)
COc1cccc(/N=C/c2cc(OC)c(OC)c(OC)c2)c1,36.2 µM (inactive),> 100 µM (inactive),> 23 µM (inactive),64.3 µM (inactive),33.2 µM (inactive),> 100 µM (inactive),> 100 µM (inactive),> 100 µM (inactive),> 100 µM (inactive),> 100 µM (inactive),25.8 µM (inactive),56.9 µM (inactive),> 100 µM (inactive),16.8 µM (inactive),> 100 µM (inactive),91.2 µM (inactive),> 100 µM (inactive),20.8 µM (inactive),> 100 µM (inactive),> 100 µM (inactive)
Cc1cc2nc3[nH]c4c(Cl)cc(Cl)cc4c3nc2cc1C,> 100 µM (inactive),> 100 µM (inactive),> 100 µM (inactive),> 100 µM (inactive),> 100 µM (inactive),> 100 µM (inactive),> 100 µM (inactive),> 100 µM (inactive),> 100 µM (inactive),> 100 µM (inactive),> 100 µM (inactive),> 100 µM (inactive),72.3 µM (inactive),> 100 µM (inactive),> 100 µM (inactive),> 100 µM (inactive),> 100 µM (inactive),> 100 µM (inactive),> 100 µM (inactive),> 100 µM (inactive)
O=C1NC(=O)C23C(=O)NC(=O)C12C1C=CC3CC1 (stereo not given),> 10 µM (inactive),> 10 µM (inactive),> 10 µM (inactive),> 10 µM (inactive),> 10 µM (inactive),> 10 µM (inactive),> 10 µM (inactive),> 10 µM (inactive),> 10 µM (inactive),> 10 µM (inactive),> 10 µM (inactive),> 10 µM (inactive),> 10 µM (inactive),> 10 µM (inactive),> 10 µM (inactive),> 10 µM (inactive),> 10 µM (inactive),> 10 µM (inactive),> 10 µM (inactive),> 10 µM (inactive)
CC1(C)OCC(C2OC(=O)C(OCc3ccccc3)=C2OCc2ccccc2)O1 (stereo not given),45.5 µM (inactive),39.2 µM (inactive),37.1 µM (inactive),28.8 µM (inactive),32 µM (inactive),23 µM (inactive),51.8 µM (inactive),39.4 µM (inactive),83.2 µM (inactive),22.1 µM (inactive),38 µM (inactive),50.5 µM (inactive),37.8 µM (inactive),17.2 µM (inactive),29.9 µM (inactive),51.4 µM (inactive),32.9 µM (inactive),31.5 µM (inactive),23.3 µM (inactive),18.4 µM (inactive)
O=C(CSc1nnc(SCC(=O)NN=C2CCCCC2)s1)NN=C1CCCCC1,> 100 µM (inactive),> 100 µM (inactive),> 100 µM (inactive),> 100 µM (inactive),> 100 µM (inactive),> 100 µM (inactive),> 100 µM (inactive),> 100 µM (inactive),> 100 µM (inactive),> 100 µM (inactive),> 100 µM (inactive),> 100 µM (inactive),> 100 µM (inactive),> 100 µM (inactive),> 100 µM (inactive),> 100 µM (inactive),> 100 µM (inactive),> 100 µM (inactive),> 100 µM (inactive),> 100 µM (inactive)
Nc1ccccc1OCCCOc1ccccc1N,> 100 µM (inactive),> 100 µM (inactive),> 100 µM (inactive),> 100 µM (inactive),> 100 µM (inactive),> 100 µM (inactive),> 100 µM (inactive),> 100 µM (inactive),> 100 µM (inactive),> 100 µM (inactive),51.8 µM (inactive),> 100 µM (inactive),> 100 µM (inactive),78.3 µM (inactive),> 100 µM (inactive),> 100 µM (inactive),> 100 µM (inactive),> 100 µM (inactive),> 100 µM (inactive),> 100 µM (inactive)
